According to article PMC10819809 (Microorganisms, 2024):
Values after ≈ are worked out from the molar mass of the structure shown. Square brackets hold non-standard residues; d marks the D form. Peptide text beside a SMILES is read from it.

Test system: multi-drug resistant (MDR) strain (MDR-TB, clinical isolate)
Details: microdilution broth, 96-well, 2 × 10^5 CFU/mL, 37 °C 14 days, resazurin 48 h; conducted twice with three technical replicates each

Compound	MIC in µg/mL, MDR-TB
CC[C@@H](C)[C@@H](NC(=O)[C@@H](CCCCN)NC(=O)[C@H](N)Cc1c[nH]c2ccccc12)C(=O)N[C@H](CO)C(=O)N[C@H](Cc1ccccc1)C(=O)N[C@H](Cc1c[nH]c2ccccc12)C(=O)N[C@H](Cc1c[nH]c2ccccc12)C(=O)N[C@H](CCCNC(=N)N)C(=O)N[C@H](CCCNC(=N)N)C(N)=O [wkisfwwrr] (H-[dW][dK][dI][dS][dF][dW][dW][dR][dR]-NH2; N-terminus assumed)	20 µg/mL (≈ 14.7 µM)
CC[C@@H](C)[C@@H](NC(=O)[C@@H](CCCCN)NC(=O)[C@H](N)Cc1c[nH]c2ccccc12)C(=O)N[C@@H](C(=O)N[C@H](Cc1ccccc1)C(=O)N[C@H](CC(N)=O)C(=O)N[C@H](Cc1c[nH]c2ccccc12)C(=O)N[C@H](CCCNC(=N)N)C(=O)N[C@H](CCCNC(=N)N)C(N)=O)C(C)C [wkivfnwrr] (H-[dW][dK][dI][dV][dF][dN][dW][dR][dR]-NH2; N-terminus assumed)	20 µg/mL (≈ 15.3 µM)
CC[C@@H](C)[C@@H](NC(=O)[C@@H](CCCCN)NC(=O)[C@H](N)Cc1c[nH]c2ccccc12)C(=O)N[C@@H](C(=O)N[C@H](Cc1ccccc1)C(=O)NCC(=O)N[C@H](Cc1c[nH]c2ccccc12)C(=O)N[C@H](CCCNC(=N)N)C(=O)N[C@H](CCCNC(=N)N)C(N)=O)C(C)C [wkivfGwrr] (H-[dW][dK][dI][dV][dF]G[dW][dR][dR]-NH2; N-terminus assumed)	20 µg/mL (≈ 16 µM)
CC[C@@H](C)[C@@H](NC(=O)[C@@H](CCCCN)NC(=O)[C@H](N)Cc1c[nH]c2ccccc12)C(=O)N[C@@H](C(=O)N[C@H](Cc1ccccc1)C(=O)N[C@H](CC(=O)O)C(=O)N[C@H](Cc1c[nH]c2ccccc12)C(=O)N[C@H](CCCNC(=N)N)C(=O)N[C@H](CCCNC(=N)N)C(N)=O)C(C)C [wkivfdwrr] (H-[dW][dK][dI][dV][dF][dD][dW][dR][dR]-NH2)	20 µg/mL (≈ 15.3 µM)
CC[C@@H](C)[C@@H](NC(=O)[C@@H](CCCCN)NC(=O)[C@H](N)Cc1c[nH]c2ccccc12)C(=O)N[C@@H](C(=O)N[C@H](Cc1ccccc1)C(=O)N[C@H](Cc1c[nH]c2ccccc12)C(=O)N[C@H](Cc1c[nH]c2ccccc12)C(=O)N[C@H](CCCNC(=N)N)C(=O)N[C@H](CCCNC(=N)N)C(N)=O)C(C)C [peptide 14D] (H-[dW][dK][dI][dV][dF][dW][dW][dR][dR]-NH2)	>50 µg/mL
